From US20260234566A1, “CELL LINES FOR EXPRESSION OF LHCG RECEPTOR” (Ares Trading S.A., priority 2023, published 2026)
Where “and” joins values, the source holds several entries; their conditions need not be identical. Equal values may be shown once.

What was measured:
[1] = tested on: adenylate cyclase (AC); assay: Reporter Gene Assay with forskolin stimulation, HEK 293-T LHCGR Luciferase; type: cell-based, human; conditions: single wells
Experimental: (§1) Second transfection efficiency evaluation. In order to assess the second transfection efficiency, a Reporter Gene Assay (RGA) was performed. […] HEK 293-T LHCGR Luciferase cells were stimulated with forskolin. As described in literature, forskolin is a diterpene able to activate the adenylate cyclase (AC) allowing the increasing of intracellular cAMP in a wide variety of cell types. Exploiting forskolin ability, the RGA assay enables the evaluation of Reporter Gene Transcription in response to cAMP accumulation without involving the LHCG receptor. The luminescence emitted after Reporter Gene Transcription, was quantified using reagents available on the market. HEK 293-T LHCGR Luciferase and HEK 293-T without transfection were seeded in a 96 well plate and stimulated with different concentration of forskolin. After incubation, the ONE-Glo EX Luciferase assay system (Promega, E8120) was added in each well and, after 10 minutes shaking, results were acquired using the plate reader. Second transfection stability. HEK 293-T LHCGR Luciferase were stimulated with forskolin 4 μM or left unstimulated. Results were reported as a fold change of treated cells over unstimulated control. All % CVs were calculated among fold changes obtained for the three banks and resulted below 25%. The mean and the SD of the 3 banks were calculated and used to generate the graphs in FIG. 4B.

[2] = tested on: adenylate cyclase (AC); assay: Reporter Gene Assay with forskolin stimulation, HEK 293-T WT; type: cell-based, human; conditions: single wells
Experimental: as §1, with “reader.” for “reader. Second transfection stability. HEK 293-T LHCGR Luciferase were stimulated with forskolin 4 μM or left unstimulated. Results were reported as a fold change of treated cells over unstimulated control. All % CVs were calculated among fold changes obtained for the three banks and resulted below 25%. The mean and the SD of the 3 banks were calculated and used to generate the graphs in FIG. 4B.”

## C=C[C@@]1(C)CC(=O)[C@]2(O)[C@@]3(C)[C@@H](O)CCC(C)(C)[C@@H]3[C@H](O)[C@H](OC(C)=O)[C@@]2(C)O1 [Forskolin, forskolin]
[1]; forskolin 0.004 μM
  Luminescence values expressed as RLUs: 4221 RLUs and 4333 RLUs and 3899 RLUs
[1]; forskolin 0.04 μM
  Luminescence values expressed as RLUs: 7547 RLUs and 6804 RLUs and 7636 RLUs
[1]; forskolin 0.4 μM
  Luminescence values expressed as RLUs: 65001 RLUs and 62733 RLUs and 72165 RLUs
[1]; forskolin 4 μM
  Luminescence values expressed as RLUs: 310180 RLUs and 299010 RLUs and 303780 RLUs
[1]; forskolin 40 μM
  Luminescence values expressed as RLUs: 374090 RLUs and 378740 RLUs and 387970 RLUs
[1]; forskolin 400 μM
  Luminescence values expressed as RLUs: 205580 RLUs and 197090 RLUs and 195210 RLUs
[2]; forskolin 0.004 μM
  Luminescence values expressed as RLUs: 92 RLUs and 61 RLUs and 62 RLUs
[2]; forskolin 0.04 μM
  Luminescence values expressed as RLUs: 124 RLUs and 88 RLUs and 68 RLUs
[2]; forskolin 400 μM
  Luminescence values expressed as RLUs: 227 RLUs and 130 RLUs and 124 RLUs
